Results as given in US12458673B2, “Use of specific phages for the treatment of nontuberculosis mycobacteria (NTM) infections” (priority 2019, dated 2025).

System: M. abscessus clinical isolates
Assay: Antibiotic resistance profile of clinical isolates

Trimethoprim/Sulfa
Antibiotic Susceptibility: 1
